Source: US20140128385A1 (NOVARTIS AG, priority 2011, published 2014)
Structures can show the parent of a compound that is named as a salt.

Molecular target: T1, BACE-2 (Homo sapiens, UniProt Q9Y5Z0)
T1 construct: Recombinant BACE-2 (extracellular domain, expressed in baculovirus and purified using standard methods); made in house
T1 sequence (Q9Y5Z0 63-473 limits assumed): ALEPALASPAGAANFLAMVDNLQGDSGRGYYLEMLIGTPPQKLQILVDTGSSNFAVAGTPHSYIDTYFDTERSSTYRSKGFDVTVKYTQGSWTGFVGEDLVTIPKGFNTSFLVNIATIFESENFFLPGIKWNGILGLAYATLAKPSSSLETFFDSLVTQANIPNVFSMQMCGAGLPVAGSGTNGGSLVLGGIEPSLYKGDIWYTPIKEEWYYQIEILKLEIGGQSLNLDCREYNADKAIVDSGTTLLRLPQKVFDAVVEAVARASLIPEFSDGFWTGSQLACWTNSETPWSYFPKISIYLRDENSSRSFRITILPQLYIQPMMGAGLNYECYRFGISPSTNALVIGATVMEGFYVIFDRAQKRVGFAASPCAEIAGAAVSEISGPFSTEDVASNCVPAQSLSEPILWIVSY
Experiment: assay for inhibition of BACE-2
Format: biochemical

SMILES	IC50
C[C@@]1(c2cccc(NC(=O)c3ccc(Br)cn3)n2)COCC(N)=N1 [Example 257, 5-Bromo-pyridine-2-carboxylic acid [6-((R)-5-amino-3-methyl-3,6-dihydro-2H-[1,4]-oxazin-3-yl)-pyridin-2-yl]-amide]	0.256 µM
NC1=NC(CF)(c2cccc(NC(=O)c3ccc(Cl)cn3)n2)COC1 (stereo not shown) [Example 259, 5-{6-[(5-Chloro-pyridine-2-carbonyl)-amino]-pyridin-2-yl}-5-fluoromethyl-5,6-dihydro-2H-[1,4]oxazin-3-yl-ammonium trifluoro acetate]	1.39 µM
[2H]c1nc(C(=O)Nc2cccc(C3(CF)COCC(N)=N3)n2)c(C([2H])([2H])[2H])c([2H])c1Cl (stereo not shown) [Example 262, 5-{6-[(4,6-Dideutero-5-chloro-3-trideuteromethyl-pyridine-2-carbonyl)-amino]-pyridin-2-yl}-5-fluoromethyl-5,6-dihydro-2H-[1,4]oxazin-3-yl-ammonium trifluoro acetate]	0.242 µM
NC(=S)c1ccc(C(=O)Nc2cccc(C3(CF)COCC(N)=N3)n2)nc1 (stereo not shown) [Example 263]	8.66 µM
[2H]c1nc(C(=O)Nc2cc(C3(CF)COCC(N)=N3)ccn2)c(C([2H])([2H])[2H])c([2H])c1Cl (stereo not shown) [Example 269, 5-{2-[(5-Chloro-4,6-dideutero-3-trideuteromethyl-pyridine-2-carbonyl)-amino]-pyridin-4-yl}-5-fluoromethyl-5,6-dihydro-2H-[1,4]oxazin-3-yl-ammonium acetate]	1.53 µM
NC1=NC(CF)(c2ccnc(NC(=O)c3ccc(Cl)cn3)c2)COC1 (stereo not shown) [Example 270]	4.82 µM

Now from value to molecule:

IC50	SMILES
1.66 µM	NC1=NC(CF)(c2cccc(NC(=O)c3ccc(Br)cn3)n2)COC1 (stereo not shown) [Example 260]
1.02 µM	Cc1cc(C#N)cnc1C(=O)Nc1cccc(C2(CF)COCC(N)=N2)n1 (stereo not shown) [Example 261, 5-{6-[(5-Cyano-3-methyl-pyridine-2-carbonyl)-amino]-pyridin-2-yl}-5-fluoromethyl-5,6-dihydro-2H-[1,4]oxazin-3-yl-ammonium trifluoro acetate]
> 10 µM	Cc1cc(C(N)=S)cnc1C(=O)Nc1cc(C2(CF)COCC(N)=N2)ccn1 (stereo not shown) [Example 271, 5-Fluoromethyl-5-{2-[(3-methyl-5-thiocarbamoyl-pyridine-2-carbonyl)-amino]-pyridin-4-yl}-5,6-dihydro-2H-[1,4]oxazin-3-yl-ammonium trifluoro-acetate]
0.132 µM	NC1=NC(CF)(c2cc(NC(=O)c3ccc(Br)cn3)cnc2Cl)COC1 (stereo not shown) [Example 274, 5-Bromo-pyridine-2-carboxylic acid [5-(5-amino-3-fluoromethyl-3,6-dihydro-2H-[1,4]oxazin-3-yl)-6-chloro-pyridin-3-yl]-amide hydrochloride]
